Patent US10344330B2, “Glatiramer acetate response biomarker mRNA potency assay” (Mylan Inc., priority 2013, dated 2019)

What was measured:
[1] = tested on: mIL-5 mRNA in primary LN cells; experiment: mIL-5 mRNA by real-time PCR in stimulated LN cells of immunized (SJL/J×BALB/C)F1 mice (Example I); type: cell-based, mouse; settings: for mIL-5 mRNA Level: Experiment 1, GA-immunized (SJL/J×BALB/C)F1; for mIL-5 mRNA: not normalized to a reference gene
Description: (§1) For each of the three experiments summarized in Table 1, female (SJL/J×BALB/C) F1 hybrid (Jackson Laboratory) mice were immunized by footpad injection with either 250 μg GMA (Mylan Pharmaceuticals, Inc.) and CFA (Sigma Aldrich), or Mannitol and CFA (as a negative control). The GA solution was diluted to 5 mg/mL with Dulbecco's Phosphate-buffered saline. A dose solution was then prepared by mixing the diluted GA solution (5 mg/mL) and CFA (1:1) until well-emulsified. Each mouse received a total injection volume of 0.1 mL (250 μg GA). Animals were immunized on Day 0. Immunized animals were sacrificed via cervical dislocation on Day 10 following immunization. […] The LN were washed 3 times with −5 mL of RPMI medium, and the LN cells isolated by pressing the LN with a syringe plunger. […] The cell suspension was centrifuged at about 200×g for 10 minutes at about 4° C. and re-suspended in ice cold enriched DCCM-1 medium. The LN cells (2.5×10^6 cells/cm^2) were plated in the wells of a 48-well tissue culture plate and stimulated with GA or controls.
(§2) Expression of cytokine mRNA was quantitatively analyzed using a Real-Time PCR system (7500, Applied Biosystems).
(§3) (DCCM1 from Beit Haemek Ltd.; Cat. No. 05 010 1A). There was no MBP treatment for the 2-hour groups.
(§4) Group 1B animals were female (SJL/J×BALB/C) F1 hybrid (Jackson Laboratory) mice immunized by footpad injection with either 250 μg GA and CFA, or Mannitol and CFA (as a negative control). A dose solution was prepared by mixing a diluted GA solution (5 mg/mL) and CFA (1:1). Each mouse received a total injection volume of […] (250 μg GA). Animals were immunized on Day 0. Immunized animals were sacrificed via cervical dislocation on Day 10 following immunization. Lymph nodes from immunized mice were removed and isolated. LN cells (2.5×10^6 cells/cm^2) were plated in the wells of a 48-well tissue culture plate for stimulation with GA.
(§5) Expression of cytokine mRNA was quantitatively analyzed 4 and 6 hours after using a Real-Time PCR system (7500, Applied Biosystems).

[2] = tested on: mIFN-γ mRNA in primary LN cells; experiment: mIFN-γ mRNA by real-time PCR in stimulated LN cells of immunized (SJL/J×BALB/C)F1 mice (Example I); type: cell-based, mouse
Description: as §1, §2, §3, §4, §5

[3] = tested on: mouse IL-5 mRNA in primary LN cells; experiment: Mouse IL-5 mRNA in LN cells of immunized SJL/J mice stimulated with Copaxone and GMA lots, normalized to Actβ or GAPDH (Example V); type: cell-based
Description: A real-time polymerase chain reaction method was used to measure the expression of cytokine mRNA in GA-stimulated LN cells from GA-immunized SJL/J mice. Normalization of expression with two different housekeeping genes, GAPDH and β-actin, was tested.
Each group consisted of six female SJL/J mice immunized by injection in all four footpads with a total dose of 250 μg of one lot of GA, or mannitol and no GA. Three Copaxone batches and three GMA batches were used to immunize the mice. CFA was included in both GA and mannitol immunizations. Ten days following immunization, LN cell samples isolated from the immunized mice were each stimulated with a concentration of a Copaxone lot and a GMA lot. A positive control of 2.5 μg/mL ConA treated LN cells and a negative control of 10 μg/mL MBP treated cells were included in each group.
In the initial run, a lack of reproducibility was observed when cytokine mRNA levels were normalized to GAPDH mRNA levels. Therefore, the Q-PCR analysis was repeated on the samples, measuring levels of IL-2, IL-4, IL-5, and IL-13, using both GAPDH and β-actin as reference gene.
The RNA isolation and analysis procedures were similar to those described in Example IV. The expression levels of mouse IL-2, IL-4, IL-5 and IL-13 mRNA observed are summarized below in Tables 29 to 36. As shown by the data in Tables 30, 32, 34 and 36, a lack of reproducibility in the findings again was observed when cytokine mRNA levels were normalized to GAPDH mRNA for all cytokines except IL-13.

[4] = 2 hour post stimulation, GA 10, ConA 2.5 μg/mL
[5] = 4 hour post stimulation, GA 10, MBP 10, ConA 2.5 μg/mL
[6] = 6 hour post stimulation, GA 10, MBP 10, ConA 2.5 μg/mL
[7] = 24 hour post stimulation, GA 10, MBP 10, ConA 2.5 μg/mL
[8] = Group 1B (GA + CFA), 4 hours post-stimulation, GA 10, MBP 10, ConA 2.5 μg/mL
[9] = Group 1B (GA + CFA), 6 hours post-stimulation, GA 10, MBP 10, ConA 2.5 μg/mL
[10] = Group 2B (Mannitol + CFA), 4 hours post-stimulation, GA 10, MBP 10, ConA 2.5 μg/mL
[11] = Group 2B (Mannitol + CFA), 6 hours post-stimulation, GA 10, MBP 10, ConA 2.5 μg/mL
[12] = Experiment 1, GA-immunized (SJL/J×BALB/C)F1, 2 hour post stimulation, GA 10, ConA 2.5 μg/mL
[13] = Experiment 1, GA-immunized (SJL/J×BALB/C)F1, 4 hour post stimulation, GA 10, MBP 10, ConA 2.5 μg/mL
[14] = Experiment 1, GA-immunized (SJL/J×BALB/C)F1, 6 hour post stimulation, GA 10, MBP 10, ConA 2.5 μg/mL
[15] = Experiment 1, GA-immunized (SJL/J×BALB/C)F1, 24 hour post stimulation, GA 10, MBP 10, ConA 2.5 μg/mL
[16] = Group 1B (GA + CFA), 4 hours post-stimulation, GA 10, MBP 10, ConA 2.5 μg/mL, reference GAPDH
[17] = Group 1B (GA + CFA), 6 hours post-stimulation, GA 10, MBP 10, ConA 2.5 μg/mL, reference GAPDH
[18] = Group 2B (Mannitol + CFA), 4 hours post-stimulation, GA 10, MBP 10, ConA 2.5 μg/mL, reference GAPDH
[19] = Group 2B (Mannitol + CFA), 6 hours post-stimulation, GA 10, MBP 10, ConA 2.5 μg/mL, reference GAPDH

Row | Molecule | mIL-5 mRNA Level [1, 4] [fold change vs control] | mIL-5 mRNA Level [1, 5] [fold change vs control] | mIL-5 mRNA Level [1, 6] [fold change vs control] | mIL-5 mRNA Level [1, 7] [fold change vs control] | mIL-5 mRNA [1, 8] [fold change vs control] | mIL-5 mRNA [1, 9] [fold change vs control] | mIL-5 mRNA [1, 10] [fold change vs control] | mIL-5 mRNA [1, 11] [fold change vs control] | mIFN-γ mRNA Level [2, 12] [fold change vs control] | mIFN-γ mRNA Level [2, 13] [fold change vs control] | mIFN-γ mRNA Level [2, 14] [fold change vs control] | mIFN-γ mRNA Level [2, 15] [fold change vs control] | mIFN-γ mRNA Level [2, 16] [fold change vs control] | mIFN-γ mRNA Level [2, 17] [fold change vs control] | mIFN-γ mRNA Level [2, 18] [fold change vs control] | mIFN-γ mRNA Level [2, 19] [fold change vs control] | also measured
1 | L-glutamic acid polymer with L-alanine, L-lysine and L-tyrosine, acetate (salt) [GA] | 1.6 | 4.8 | 5.1 | 1.9 | 4.0 | 4.3 | 1.0 | 1.2 | 1.3 | 2.1 | 4.6 | 4.6 | 7.0 | 2.4 | 1.2 | 1.8 | mIL-5 mRNA level increase vs DCCM-1-stimulated control ([1]; Group 1B, 4 and 6 hours (text summary of Table 10)): at least 4 fold
2 | Concanavalin A [ConA, reference compound] | 3.6 | 17.1 | 13.1 | 0.5 | 20.4 | 26.7 | 16.6 | 36.5 | 40.9 | 49.3 | 18.2 | 0.4 | 29.5 | 3.0 | 15.5 | 8.9 | IL-5 mRNA Fold Change ([3]; Group 3 (mice immunized with GA-M2 Mylan GMA), 2.5 μg/mL, normalized to Actβ): 19.1 fold; IL-5 mRNA Fold Change ([3]; Group 4 (mice immunized with GA-C2 Copaxone), 2.5 μg/mL, normalized to Actβ): 27.8 fold; IL-5 mRNA Fold Change ([3]; Group ID 3, 2.5 μg/mL, normalized to GAPDH): 21.1 fold; IL-5 mRNA Fold Change ([3]; Group ID 4, 2.5 μg/mL, normalized to GAPDH): 59.4 fold
3 | MBP: myelin basic protein, a negative control (protein, UniProt P02686 1-304, looked up) Myelin basic protein: MGNHAGKRELNAEKASTNSETNRGESEKKRNLGELSRTTSEDNEVFGEADANQNNGTSSQDTAVTDSKRTADPKNAWQDAHPADPGSRPHLIRLFSRDAPGREDNTFKDRPSESDELQTIQEDSAATSESLDVMASQKRPSQRHGSKYLATASTMDHARHGFLPRHRDTGILDSIGRFFGGDRGAPKRGSGKDSHHPARTAHYGSLPQKSHGRTQDENPVVHFFKNIVTPRTPPPSQGKGRGLSLSRFSWGAEGQRPGFGYGGRASDYKSAHKGFKGVDAQGTLSKIFKLGGRDSRSGSPMARR | – | 0.8 | 0.2 | 0.8 | 1.4 | 0.9 | 1.1 | 1.1 | – | 0.8 | 0.2 | 0.6 | 0.9 | 0.6 | 1.1 | 0.9 | IL-5 mRNA Fold Change ([3]; Group 3 (mice immunized with GA-M2 Mylan GMA), 10 μg/mL, normalized to Actβ): 0.6 fold; IL-5 mRNA Fold Change ([3]; Group 4 (mice immunized with GA-C2 Copaxone), 10 μg/mL, normalized to Actβ): 1.1 fold; IL-5 mRNA Fold Change ([3]; Group ID 3, 10 μg/mL, normalized to GAPDH): 0.6 fold; IL-5 mRNA Fold Change ([3]; Group ID 4, 10 μg/mL, normalized to GAPDH): 2.3 fold
